tested on: HCT116 colorectal cancer cells; assay: Cisplatin sensitization assay (96 h MTS cell viability); assay type: cell-based; details: Cisplatin sensitization value;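 further: compound concentration needed to lower the IC50 of Cisplatin alone by a set fold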
Summary of the method: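 HCT116 cells were dosed simultaneously with compound and cisplatin as a full matrix of 2-fold serial dilutions from 10 μM top final concentration. Incubation was 96 h at 37° C., 5% CO2, followed by 1 h with MTS reagent for the viability read-out. Sensitization values were binned into +++, ++ and + categories.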

| SMILES | Cisplatin Sensitization Assay |
| --- | --- |
| CN1CCN(c2ccncc2NC(=O)c2c(N)nn3cc(Cl)cnc23)CC1 [I-N-59, 2-amino-6-chloro-N-(4-(4-methylpiperazin-1-yl)pyridin-3-yl)pyrazolo[1,5-a]pyrimidine-3-carboxamide] | ++ (Compounds with a Cisplatin sensitization value >0.02 μM but <0.2 μM are marked with “++.”) |
| COCCN1CCN(c2ccncc2NC(=O)c2c(N)nn3cc(Cl)cnc23)CC1 [I-N-60, 2-amino-6-chloro-N-(4-(4-(2-methoxyethyl)piperazin-1-yl)pyridin-3-yl)pyrazolo[1,5-a]pyrimidine-3-carboxamide] | +++ (Compounds with a Cisplatin sensitization value of <0.02 μM are marked with “+++.”) |
| CN1CCN2CCN(c3ccncc3NC(=O)c3c(N)nn4cc(Cl)cnc34)CC2C1 (centres unmarked) [I-N-61, 2-amino-6-chloro-N-(4-(8-methylhexahydro-1H-pyrazino[1,2-a]pyrazin-2(6H)-yl)pyridin-3-yl)pyrazolo[1,5-a]pyrimidine-3-carboxamide] | +++ (Compounds with a Cisplatin sensitization value of <0.02 μM are marked with “+++.”) |
| CC1(N2CCN(c3ccncc3NC(=O)c3c(N)nn4cc(F)cnc34)CC2)COC1 [I-N-62, 2-amino-6-fluoro-N-(4-(4-(3-methyloxetan-3-yl)piperazin-1-yl)pyridin-3-yl)pyrazolo[1,5-a]pyrimidine-3-carboxamide] | ++ (Compounds with a Cisplatin sensitization value >0.02 μM but <0.2 μM are marked with “++.”) |
| CN1CCN(c2ccncc2NC(=O)c2c(N)nn3cc(Cl)cnc23)CC1CO (centres unmarked) [I-N-63, 2-amino-6-chloro-N-(4-(3-(hydroxymethyl)-4-methylpiperazin-1-yl)pyridin-3-yl)pyrazolo[1,5-a]pyrimidine-3-carboxamide] | ++ (Compounds with a Cisplatin sensitization value >0.02 μM but <0.2 μM are marked with “++.”) |
| Nc1nn2cc(Cl)cnc2c1C(=O)Nc1cnccc1N1CCN(C2CC2)CC1 [I-N-64, 2-amino-6-chloro-N-(4-(4-cyclopropylpiperazin-1-yl)pyridin-3-yl)pyrazolo[1,5-a]pyrimidine-3-carboxamide] | +++ (Compounds with a Cisplatin sensitization value of <0.02 μM are marked with “+++.”) |
| Nc1nn2cc(Cl)cnc2c1C(=O)Nc1cnccc1N1CCN2CCC[C@@H]2C1 [I-N-65, (R)-2-amino-6-chloro-N-(4-(hexahydropyrrolo[1,2-a]pyrazin-2(1H)-yl)pyridin-3-yl)pyrazolo[1,5-a]pyrimidine-3-carboxamide] | + (Compounds with a Cisplatin sensitization value >0.2 μM but <5 μM are marked with “+.”) |
| CC1(O)CCN(c2ccncc2NC(=O)c2c(N)nn3cc(Cl)cnc23)CC1 [I-N-66, 2-amino-6-chloro-N-(4-(4-hydroxy-4-methylpiperidin-1-yl)pyridin-3-yl)pyrazolo[1,5-a]pyrimidine-3-carboxamide] | +++ (Compounds with a Cisplatin sensitization value of <0.02 μM are marked with “+++.”) |
| Nc1nn2cc(Cl)cnc2c1C(=O)Nc1cnccc1N1CCN(CC(F)(F)F)CC1 [I-N-67, 2-amino-6-chloro-N-(4-(4-(2,2,2-trifluoroethyl)piperazin-1-yl)pyridin-3-yl)pyrazolo[1,5-a]pyrimidine-3-carboxamide] | +++ (Compounds with a Cisplatin sensitization value of <0.02 μM are marked with “+++.”) |
| Nc1nn2cc(Cl)cnc2c1C(=O)Nc1cnccc1N1CC[S+]([O-])CC1 [I-N-68, 2-amino-6-chloro-N-(4-(1-oxidothiomorpholino)pyridin-3-yl)pyrazolo[1,5-a]pyrimidine-3-carboxamide] | +++ (Compounds with a Cisplatin sensitization value of <0.02 μM are marked with “+++.”) |
| CC(C)(O)C1CCN(c2ccncc2NC(=O)c2c(N)nn3cc(Cl)cnc23)CC1 [I-N-69, 2-amino-6-chloro-N-(4-(4-(2-hydroxypropan-2-yl)piperidin-1-yl)pyridin-3-yl)pyrazolo[1,5-a]pyrimidine-3-carboxamide] | +++ (Compounds with a Cisplatin sensitization value of <0.02 μM are marked with “+++.”) |
| Nc1nn2cc(Cl)cnc2c1C(=O)Nc1cnccc1N1CCNC(C(F)(F)F)C1 (centres unmarked) [I-N-70, 2-amino-6-chloro-N-(4-(3-(trifluoromethyl)piperazin-1-yl)pyridin-3-yl)pyrazolo[1,5-a]pyrimidine-3-carboxamide] | ++ (Compounds with a Cisplatin sensitization value >0.02 μM but <0.2 μM are marked with “++.”) |
| Nc1nn2cc(Cl)cnc2c1C(=O)Nc1cnccc1N1CCN2CCC[C@H]2C1 [I-N-71, (S)-2-amino-6-chloro-N-(4-(hexahydropyrrolo[1,2-a]pyrazin-2(1H)-yl)pyridin-3-yl)pyrazolo[1,5-a]pyrimidine-3-carboxamide] | +++ (Compounds with a Cisplatin sensitization value of <0.02 μM are marked with “+++.”) |
| CC1CN(C)CCN1c1ccncc1NC(=O)c1c(N)nn2cc(Cl)cnc12 (centres unmarked) [I-N-72, 2-amino-6-chloro-N-(4-(2,4-dimethylpiperazin-1-yl)pyridin-3-yl)pyrazolo[1,5-a]pyrimidine-3-carboxamide] | +++ (Compounds with a Cisplatin sensitization value of <0.02 μM are marked with “+++.”) |
| COC1CCN(c2ccncc2NC(=O)c2c(N)nn3cc(Cl)cnc23)CC1 [I-N-73, 2-amino-6-chloro-N-(4-(4-methoxypiperidin-1-yl)pyridin-3-yl)pyrazolo[1,5-a]pyrimidine-3-carboxamide] | +++ (Compounds with a Cisplatin sensitization value of <0.02 μM are marked with “+++.”) |
| COC(=O)C1CCN(c2ccncc2NC(=O)c2c(N)nn3cc(Cl)cnc23)CC1 [I-N-74, methyl-1-(3-(2-amino-6-chloropyrazolo[1,5-a]pyrimidine-3-carboxamido)pyridin-4-yl)piperidine-4-carboxylate] | +++ (Compounds with a Cisplatin sensitization value of <0.02 μM are marked with “+++.”) |
| Nc1nn2cc(Cl)cnc2c1C(=O)Nc1cnccc1N1CCn2cncc2C1 [I-N-75, 2-amino-6-chloro-N-(4-(5,6-dihydroimidazo[1,5-a]pyrazin-7(8H)-yl)pyridin-3-yl)pyrazolo[1,5-a]pyrimidine-3-carboxamide] | +++ (Compounds with a Cisplatin sensitization value of <0.02 μM are marked with “+++.”) |
| CN1CCN(c2ccncc2NC(=O)c2c(N)nn3cc(C(C)(C)C#N)cnc23)CC1 [I-N-76, 2-amino-6-(2-cyanopropan-2-yl)-N-(4-(4-methylpiperazin-1-yl)pyridin-3-yl)pyrazolo[1,5-a]pyrimidine-3-carboxamide] | +++ (Compounds with a Cisplatin sensitization value of <0.02 μM are marked with “+++.”) |
| N#CCc1cnc2c(C(=O)Nc3cnccc3N3CCCC3)c(N)nn2c1 [I-N-77, 2-amino-6-(cyanomethyl)-N-(4-(pyrrolidin-1-yl)pyridin-3-yl)pyrazolo[1,5-a]pyrimidine-3-carboxamide] | + (Compounds with a Cisplatin sensitization value >0.2 μM but <5 μM are marked with “+.”) |
| N#CCc1cnc2c(C(=O)Nc3cnccc3N3CCCCCC3)c(N)nn2c1 [I-N-79, 2-amino-N-(4-(azepan-1-yl)pyridin-3-yl)-6-(cyanomethyl)pyrazolo[1,5-a]pyrimidine-3-carboxamide] | ++ (Compounds with a Cisplatin sensitization value >0.02 μM but <0.2 μM are marked with “++.”) |

Source: patent US11117900B2 (Vertex Pharmaceuticals Incorporated, priority 2012, dated 2021)
